# Measured values as given in publication PMC9675574 (JCI Insight, 2022).
# Where two headings read alike, the source gives them in different places.
# Legend:
# [1] = molecular target: mouse trypsin isoform T8 (anionic trypsin) (Mus musculus, UniProt Q9R0T7); test: biochemical; format: biochemical; conditions: for kcat / Km: GPR-pNA, 24°C
# Method: (§1) Recombinant human and mouse trypsinogens were expressed in Escherichia coli BL21(DE3) (Invitrogen), refolded in vitro, and purified by ecotin affinity chromatography (Pharmacia FPLC), according to published protocols ([60], [63], [64]). Sulfated human trypsinogens were purified from archived samples of human pancreatic juice, as described previously, with minor modifications ([65], [66]). Briefly, 50 mg freeze-dried pancreatic juice was dissolved in 2 mL 10 mM HCl, clarified by centrifugation (21,000g, 5 minutes, 4°C), and loaded onto a MonoQ 5/50 GL column equilibrated with 20 mM Tris-HCl (pH 8.0). Proteins were eluted with a 0–0.5 M NaCl gradient at 1 mL/min flow rate for 30 minutes. The fractions containing the cationic and anionic trypsinogens were further purified with ecotin affinity chromatography. The concentration of trypsinogen preparations was estimated from their UV absorbance at 280 nm using the extinction coefficients reported previously for mouse trypsinogens ([64]) and 37,525, 38,890, and 41,535/M/cm for human cationic trypsinogen (PRSS1), anionic trypsinogen (PRSS2), and mesotrypsinogen (PRSS3), respectively. To activate trypsinogen to trypsin, approximately 1 μM solution was incubated at 37°C with 28.2 ng/mL human enterokinase (final concentration) in 0.1 M Tris-HCl (pH 8.0), 10 mM CaCl2, and 0.05% Tween 20 for 1 hour. The activation reaction was followed by measuring trypsin activity: 2 μL trypsin was diluted in 48 μL assay buffer [0.1 M Tris-HCl (pH 8.0), 1 mM CaCl2, and 0.05% Tween 20], and 150 μL of 200 μM GPR-pNA trypsin substrate (in assay buffer) was added. Substrate cleavage resulting in the release of the yellow p-nitroaniline was monitored for 1 minute in a Spectramax Plus 384 microplate reader at 405 nm.
# (§2) Michaelis-Menten kinetic parameters of trypsin isoforms were determined with the chromogenic substrate GPR-pNA at 24°C. The trypsin concentration was 1 nM and the substrate concentration was varied typically between 1.56 and 200 μM in a final volume of 200 μL assay buffer. The substrate concentration range was 3.1–400 μM for mouse trypsin isoform T7 and 0.4–50 μM for mouse trypsin isoform T20. Km and kcat values were calculated from hyperbolic fits to plots of reaction velocity versus substrate concentration.
# (§3) Michaelis-Menten kinetic parameters were then measured after adding 100 μL trypsin substrate, as described above. […] To determine the Ki, the Km values were plotted as a function of the inhibitor concentration, and the Ki was calculated by dividing the y axis intercept with the slope of the linear fit. This value corresponds to the negative of the x axis intercept. Alternatively, the substrate saturation curves obtained in the absence and presence of the increasing inhibitor concentrations were globally fitted to the competitive inhibition equation y = vmax × (x/[KmObs+ x]), where y is the reaction velocity, vmax is the maximal velocity, x is the substrate concentration, and KmObs = Km × (1 + [I]/Ki), where [I] is the inhibitor concentration. Experiments were performed 3 times and each experiment was analyzed separately. […] Kinetic analysis was performed with the Prism 8 program (GraphPad).
# bovine trypsin = molecular target: T1, bovine trypsin (Bos taurus, UniProt P00760); test: Competitive inhibition kinetics of trypsin, GPR-pNA substrate; format: biochemical; conditions: 24°C
# T1 construct: purchased Worthington Biochemical Corporation LS003707
# T1 sequence (P00760 24-246): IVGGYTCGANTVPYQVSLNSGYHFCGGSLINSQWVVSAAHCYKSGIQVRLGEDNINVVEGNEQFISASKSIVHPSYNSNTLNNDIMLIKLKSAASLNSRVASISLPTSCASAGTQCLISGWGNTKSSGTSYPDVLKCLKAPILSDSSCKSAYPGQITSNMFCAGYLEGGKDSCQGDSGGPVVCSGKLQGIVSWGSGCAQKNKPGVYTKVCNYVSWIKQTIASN
# Method: Bovine trypsin (catalog number LS003707) was purchased from Worthington Biochemical Corporation and was active-site titrated with p-nitrophenyl p’-guanidino-benzoate (catalog number N-8010, MilliporeSigma) ([59]). Ecotin was produced and purified as reported previously ([60]). The concentration of ecotin was determined by titration against active-site titrated bovine trypsin. Recombinant human pro-enterokinase (catalog number 1585-SE-010) was purchased from R&D Systems and was activated with human cationic trypsin. The trypsin substrate GPR-pNA (catalog number 4000768.0100) was purchased from Bachem Americas. […] Michaelis-Menten kinetic parameters of trypsin isoforms were determined with the chromogenic substrate GPR-pNA at 24°C. […] Km and kcat values were calculated from hyperbolic fits to plots of reaction velocity versus substrate concentration. […] To determine the Ki, the Km values were plotted as a function of the inhibitor concentration, and the Ki was calculated by dividing the y axis intercept with the slope of the linear fit. This value corresponds to the negative of the x axis intercept. […] Experiments were performed 3 times and each experiment was analyzed separately. […] Kinetic analysis was performed with the Prism 8 program (GraphPad).
# [2] = molecular target: mouse trypsin isoform T7 (cationic trypsin) (Mus musculus, UniProt Q9CPN9); format: biochemical; conditions: GPR-pNA, 24°C
# Method: as §1, §2, §3
# [3] = molecular target: human and mouse trypsin isoforms; test: Ki ranges over the panel of trypsin isoforms; format: biochemical
# Method: Michaelis-Menten kinetic parameters of trypsin isoforms were determined with the chromogenic substrate GPR-pNA at 24°C. […] Km and kcat values were calculated from hyperbolic fits to plots of reaction velocity versus substrate concentration. […] To determine the Ki, the Km values were plotted as a function of the inhibitor concentration, and the Ki was calculated by dividing the y axis intercept with the slope of the linear fit. This value corresponds to the negative of the x axis intercept. […] Experiments were performed 3 times and each experiment was analyzed separately. […] Kinetic analysis was performed with the Prism 8 program (GraphPad).
# [4] = human volunteers, cited from earlier work
# [5] = range over trypsin isoforms tested, read-out: Ki range, individual fit analysis
# Sequence of mouse trypsin isoform T8 (anionic trypsin) (Q9R0T7 24-246): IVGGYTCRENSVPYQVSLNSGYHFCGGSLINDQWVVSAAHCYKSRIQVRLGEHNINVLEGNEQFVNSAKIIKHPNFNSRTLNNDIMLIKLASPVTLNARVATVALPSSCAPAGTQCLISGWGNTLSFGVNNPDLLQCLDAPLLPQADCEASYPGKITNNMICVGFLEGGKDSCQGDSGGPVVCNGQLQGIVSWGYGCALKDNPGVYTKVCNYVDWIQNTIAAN
# Sequence of mouse trypsin isoform T7 (cationic trypsin) (Q9CPN9 entry or part of it): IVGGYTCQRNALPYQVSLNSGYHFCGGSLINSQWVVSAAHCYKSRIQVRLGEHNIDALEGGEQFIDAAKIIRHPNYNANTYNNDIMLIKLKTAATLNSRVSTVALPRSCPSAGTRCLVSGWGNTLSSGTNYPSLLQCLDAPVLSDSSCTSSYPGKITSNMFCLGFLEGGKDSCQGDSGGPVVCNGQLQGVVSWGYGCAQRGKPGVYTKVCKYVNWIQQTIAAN
smiles,measurement,setting,value
N=C(N)c1ccccc1 [benzamidine],kcat,[1]; 12.5 μM benzamidine,103.9 ± 7.9 per second
same,kcat,[1]; 25 μM benzamidine,105.6 ± 4.9 per second
same,kcat,[1]; 37.5 μM benzamidine,100.2 ± 0.8 per second
same,kcat,[1]; 50 μM benzamidine,105.5 ± 7 per second
same,Ki,"[1]; mean ± SD, n = 3",6.7 ± 1.3 µM
same,kcat,bovine trypsin; 25 μM benzamidine,109 ± 9.5 per second
same,kcat,bovine trypsin; 50 μM benzamidine,115.8 ± .9 per second
same,kcat,[2]; 12.5 μM benzamidine,125.4 ± 2.7 per second
same,kcat,[2]; 25 μM benzamidine,125.5 ± 3.5 per second
same,kcat,[2]; 37.5 μM benzamidine,135 ± 3.9 per second
same,kcat,[2]; 50 μM benzamidine,127.9 ± 7.5 per second
same,Ki,[3]; [5],3300 to 20600 nM
[H]/N=C(/N)c1ccc(NCc2nc3cc(C(=O)N(CCC(=O)O)c4ccccn4)ccc3n2C)cc1 [dabigatran],Ki,[1],0.0316 ± 0.0026 µM
same,Km,[1]; 50 nM dabigatran,20.6 ± 1.5 µM
same,kcat,[1]; 50 nM dabigatran,90.4 ± 1 per second
same,Km,[1]; 100 nM dabigatran,34.2 ± 4.1 µM
same,kcat,[1]; 100 nM dabigatran,92.3 ± 1.6 per second
same,Km,[1]; 150 nM dabigatran,46.3 ± 3 µM
same,kcat,[1]; 150 nM dabigatran,88.9 ± 1.3 per second
same,Km,[1]; 200 nM dabigatran,60.8 ± 4 µM
same,kcat,[1]; 200 nM dabigatran,85.1 ± 7.2 per second
same,steady-state plasma levels of dabigatran,[4]; 100 mg dabigatran etexilate 3 times daily,around 50 ng/mL
same,steady-state plasma levels of dabigatran,[4]; 200 mg dabigatran etexilate 3 times daily,~100 ng/mL
same,Km,bovine trypsin; 50 nM dabigatran,49.5 ± 3.3 µM
same,kcat,bovine trypsin; 50 nM dabigatran,127.7 ± 0.8 per second
same,Km,bovine trypsin; 100 nM dabigatran,71.6 ± 3.5 µM
same,kcat,bovine trypsin; 100 nM dabigatran,126.6 ± 3.5 per second
same,Km,bovine trypsin; 150 nM dabigatran,91.9 ± 4.9 µM
same,kcat,bovine trypsin; 150 nM dabigatran,123.8 ± 2.9 per second
same,Km,bovine trypsin; 200 nM dabigatran,126 ± 7 µM
same,kcat,bovine trypsin; 200 nM dabigatran,130.1 ± 1.4 per second
same,kcat,[2]; 100 nM dabigatran,47.5 ± 2 per second
same,kcat,[2]; 150 nM dabigatran,50.1 ± 1.5 per second
same,kcat,[2]; 200 nM dabigatran,49.3 ± 1.7 per second
same,Ki,"[3]; all human and mouse trypsin isoforms, read-out: Ki range",10 to 79 nM
same,Ki,"[3]; range over trypsin isoforms tested, read-out: Ki range, global fit analysis",10.3 to 78.9 nM
same,Ki,[3]; [5],10 to 65 nM
